Test results published in patent US20250161243A1, “MEF2 TRANSCRIPTIONAL ACTIVATORS TO TREAT NEUROLOGIC CONDITIONS” (The Scripps Research Institute, priority 2022, published 2025).
pEC50: −log10 of the molar value. “Also recorded” adds a separate entry of the source.

Legend:
[1] = literature references given; cited from earlier work
[2] = system: MEF2 transcriptional activity; experiment: MEF2 transcriptional activity screen (Luciferase-MEF2 reporter in human neural progenitor cells); assay type: cell-based; conditions: for pEC50: Homo sapiens, concentration for half-maximal activity derived from the hill equation model, MEF2 luciferase reporter, read-out: qAC50
[3] = system: MEF2C haploinsufficient (MHCS) patient hiPSC-derived cerebrocortical neurons; experiment: MAP2 protein expression (immunoblot) in MCHS patient hiPSC-derived cerebrocortical neurons; assay type: cell-based, human; conditions: MCHS neurons versus WT control, in vitro
Text: FIGS. 5A and 5B. […] (FIG. 4A) MAP2 protein expression in neurons treated with AR-42 and (n=3 in 2 independent experiments). (FIG. 4B) Representative immunoblot of MAP2 expression and GAPDH loading control. Data represented as mean±SEM. * P<0.05 by one-way ANOVA and Tukey post-hoc test.
Additionally, the neurons of patients with MEF2C haploinsufficiency syndrome (MCHS) display shorter neurites. The neuronal marker MAP2 was monitored as a biomarker for neurites in the MCHS hiPSC-derived neurons versus WT control: compromised levels of MAP2 were found, but they were corrected by treatment with AR-42 in vitro (FIGS. 6A and 6B). These types of assays correlate well with improvement in behavioral studies in this type of ASD/ID, as illustrated by the use mouse models of MCHS (S. Tu (2017)).

[4] = system: MEF2 transcriptional activity; experiment: Confirmatory screen and Renilla counter-screen of MEF2 reporter activity; assay type: cell-based, human; conditions: n=3
Text: FIG. 4. Dose-response for hits in the Renilla counterscreen. Dose response plots for AR-42, that had high EC50 and >3-fold increase in MEF2 activity in the primary screen. (n=3).
(§1) In an embodiment, a compound for use in a method as described herein is AR-42 (Table 1).

[5] = system: MEF2C haploinsufficiency syndrome (MCHS) patient hiPSC-derived cerebrocortical neurons; experiment: Calcium events (fluo-4AM) in MCHS patient hiPSC-derived cerebrocortical neurons; assay type: cell-based, human; conditions: MCHS neurons against isogenic WT control
Text: FIGS. 6A and 6B. AR-42 decreases hyperelectrical activity in MEF2C haploinsufficiency syndrome (MCHS) patient hiPSC-derived cerebrocortical neurons. (FIG. 5A) Representative traces of calcium events using fluo-4AM calcium-sensitive dye in hiPSC-derived neurons. […] (FIG. 5B) Quantification of calcium event frequency. Data represent mean±SEM. Sample size was 5 neurons imaged per coverslip in 3 coverslips. * P<0.05 by one-way ANOVA and Tukey post-hoc test.
as §1

| Compound | PAMPA Pe (10^−6 cm s^−1) [1] | pEC50 [2] | MAP2 levels (neurite biomarker) [3] | MEF2 transcriptional activity corrected with control Renilla-based (non-specific) reporter [4] | increase in MEF2 activity in the primary screen ([2]; primary screen, 10 μM) | aberrant hyperactivity (Ca^2+ signaling, calcium event frequency) [5] |
| --- | --- | --- | --- | --- | --- | --- |
| Nc1c2ccccc2nc2ccccc12 [ACRISORCIN] | 6 10^−6 cm s^−1 | 4.72 |  |  |  |  |
| CC(C)[C@H](C(=O)Nc1ccc(C(=O)NO)cc1)c1ccccc1 [AR-42] |  | 6.36 | increase MAP2 levels; also recorded: corrected | increased MEF2 transcriptional activity | > 3 fold | normalizes this aberrant, excessive activity; also recorded: decreased aberrant hyperactivity |
| CNS(=O)(=O)Nc1nccc(Cc2c(C)c3ccc(Oc4ncccn4)cc3oc2=O)c1F [RO-5126766] | 6 10^−6 cm s^−1 | 7.41 |  |  |  |  |
